Measurements: article PMC3870792 (Neuropsychopharmacology, 2013)

Molecular target: GABAA receptor α2 subunit (α2β3γ2 GABAAR) (Rattus norvegicus, UniProt P18508+P23576)
Test: [3H]Ro […]-4513 displacement on HEK293 membranes
Type: binding

Chain of GABAA receptor α2 subunit (α2β3γ2 GABAAR) (P23576 29-451): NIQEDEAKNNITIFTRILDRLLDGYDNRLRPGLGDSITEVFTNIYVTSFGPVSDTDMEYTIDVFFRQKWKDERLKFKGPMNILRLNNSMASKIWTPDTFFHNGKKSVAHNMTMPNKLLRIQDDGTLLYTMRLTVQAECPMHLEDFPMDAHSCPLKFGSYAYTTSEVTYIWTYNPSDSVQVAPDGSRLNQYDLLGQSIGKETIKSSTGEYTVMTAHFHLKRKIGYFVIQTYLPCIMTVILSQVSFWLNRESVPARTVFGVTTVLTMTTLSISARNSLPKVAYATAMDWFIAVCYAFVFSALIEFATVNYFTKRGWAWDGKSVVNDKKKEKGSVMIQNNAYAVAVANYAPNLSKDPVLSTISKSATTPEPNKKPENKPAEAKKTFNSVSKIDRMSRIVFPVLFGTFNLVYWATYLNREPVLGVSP
Chain of GABAA receptor α2 subunit (α2β3γ2 GABAAR) (P18508 39-466): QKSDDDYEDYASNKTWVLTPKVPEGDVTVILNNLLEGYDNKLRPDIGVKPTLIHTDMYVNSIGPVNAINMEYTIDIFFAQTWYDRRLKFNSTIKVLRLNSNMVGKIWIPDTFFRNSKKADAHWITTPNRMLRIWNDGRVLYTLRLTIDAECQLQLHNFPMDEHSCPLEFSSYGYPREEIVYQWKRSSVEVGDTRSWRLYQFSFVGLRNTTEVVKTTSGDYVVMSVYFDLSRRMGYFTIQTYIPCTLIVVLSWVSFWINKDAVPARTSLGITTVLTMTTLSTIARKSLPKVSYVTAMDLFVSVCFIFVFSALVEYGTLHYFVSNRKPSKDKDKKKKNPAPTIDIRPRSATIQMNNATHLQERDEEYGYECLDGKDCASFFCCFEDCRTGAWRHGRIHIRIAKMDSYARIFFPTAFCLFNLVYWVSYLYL
Chain of GABAA receptor α2 subunit (α2β3γ2 GABAAR) (P63079 26-473 partner): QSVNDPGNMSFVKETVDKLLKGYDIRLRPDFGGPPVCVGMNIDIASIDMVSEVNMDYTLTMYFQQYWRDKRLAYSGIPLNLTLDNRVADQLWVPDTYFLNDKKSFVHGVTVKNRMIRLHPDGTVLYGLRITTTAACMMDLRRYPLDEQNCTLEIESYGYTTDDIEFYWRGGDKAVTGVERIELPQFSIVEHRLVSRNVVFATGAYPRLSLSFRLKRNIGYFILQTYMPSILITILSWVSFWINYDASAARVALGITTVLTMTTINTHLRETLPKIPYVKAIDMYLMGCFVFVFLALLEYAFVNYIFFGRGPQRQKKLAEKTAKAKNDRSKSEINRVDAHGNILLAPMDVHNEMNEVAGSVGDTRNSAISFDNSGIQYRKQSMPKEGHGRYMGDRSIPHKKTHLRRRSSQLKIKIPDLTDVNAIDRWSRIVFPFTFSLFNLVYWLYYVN

Work on `C#Cc1ccc2c(c1)C(c1ccccn1)=NCc1c(C(=O)OCC)ncn1-2` [compound 2 in Rivas et al, 2009, ethyl 8-ethynyl-6-(pyridin-2-yl)-4H-benzo[f]imidazo[1,5-a][1,4]diazepine-3-carboxylate] yielded a Ki of 0.221 ± 0.022 µM.
